From the NIST ThermoML archive (doi:10.1016/j.fluid.2012.11.013)
Numbers after ± are expanded uncertainties.

Details: Liquid, Vibrating tube method

CC(C)C(C)C [2,3-dimethylbutane]
mass density [kg/m3]
Details | 283.15 K | 288.15 K | 293.15 K | 298.15 K | 303.15 K | 308.15 K | 313.15 K | 318.15 K | 323.15 K | 328.15 K
100 kPa | 670.76 ± 0.3 | 666.22 ± 0.3 | 661.58 ± 0.3 | 657 ± 0.3 | 652.31 ± 0.31 | 647.61 ± 0.31 | 642.78 ± 0.31 | 638.08 ± 0.31 | 633.18 ± 0.31 | 628.26 ± 0.31
2000 kPa | 672.72 ± 0.32 | 668.35 ± 0.32 | 663.76 ± 0.32 | 659.21 ± 0.32 | 654.73 ± 0.32 | 650.13 ± 0.32 | 645.28 ± 0.32 | 640.8 ± 0.32 | 636.04 ± 0.33 | 631.14 ± 0.33
5000 kPa | 675.8 ± 0.35 | 671.5 ± 0.35 | 667.04 ± 0.35 | 662.62 ± 0.35 | 658.23 ± 0.35 | 653.82 ± 0.35 | 649.18 ± 0.35 | 644.77 ± 0.35 | 640.11 ± 0.36 | 635.61 ± 0.36
7000 kPa | 677.77 ± 0.37 | 673.5 ± 0.37 | 669.15 ± 0.37 | 664.81 ± 0.37 | 660.39 ± 0.37 | 656.12 ± 0.37 | 651.62 ± 0.37 | 647.3 ± 0.37 | 642.73 ± 0.38 | 638.3 ± 0.38
10000 kPa | 680.57 ± 0.39 | 676.37 ± 0.39 | 672.12 ± 0.4 | 667.97 ± 0.4 | 663.63 ± 0.4 | 659.42 ± 0.4 | 655.04 ± 0.4 | 650.89 ± 0.41 | 646.47 ± 0.41 | 642.27 ± 0.41
20000 kPa | 689.26 ± 0.49 | 685.39 ± 0.49 | 681.36 ± 0.49 | 677.49 ± 0.5 | 673.54 ± 0.5 | 669.63 ± 0.5 | 665.61 ± 0.51 | 661.8 ± 0.51 | 657.61 ± 0.51 | 653.85 ± 0.52
30000 kPa | 697.12 ± 0.6 | 693.43 ± 0.6 | 689.64 ± 0.61 | 686.05 ± 0.61 | 682.15 ± 0.62 | 678.59 ± 0.62 | 674.74 ± 0.63 | 671.23 ± 0.63 | 667.06 ± 0.63 | 663.86 ± 0.64
40000 kPa | 704.27 ± 0.7 | 700.77 ± 0.71 | 697.12 ± 0.71 | 693.73 ± 0.72 | 690.01 ± 0.73 | 686.72 ± 0.73 | 683.04 ± 0.74 | 679.58 ± 0.74 | 676.08 ± 0.75 | 672.8 ± 0.75
50000 kPa | 710.91 ± 0.8 | 707.56 ± 0.81 | 704.07 ± 0.82 | 700.78 ± 0.82 | 697.16 ± 0.83 | 694.02 ± 0.84 | 690.56 ± 0.84 | 687.47 ± 0.85 | 684.13 ± 0.86 | 680.68 ± 0.86
60000 kPa | 717.08 ± 0.9 | 713.85 ± 0.91 | 710.4 ± 0.92 | 707.39 ± 0.92 | 703.95 ± 0.93 | 700.83 ± 0.94 | 697.4 ± 0.95 | 694.5 ± 0.95 | 691.19 ± 0.96 | 688.05 ± 0.97
65000 kPa | 720.09 ± 0.95 | 716.77 ± 0.96 | 713.55 ± 0.96 | 710.52 ± 0.97 | 707.12 ± 0.98 | 704.06 ± 0.99 | 700.79 ± 1 | 697.71 ± 1 | 694.58 ± 1 | 691.47 ± 1
